Reference: a melting point compilation (Tetko et al.; mined from patent text by program, amines drawn as free bases though some values may be those of a salt)

Work on `O=c1[nH]c2ccccc2c(=O)n1Cc1cccnc1` yielded a melting point of 241 to 243 °C. `Fc1ccc(Nc2nc(-c3ccc(F)cc3)cs2)cc1` gave a melting point of 127 °C. Work on `CC(=O)SC(CC(=O)c1ccc(Sc2ccc(C)cc2)cc1)C(=O)O` (stereo not drawn) yielded a melting point of 127 to 129 °C. For `COc1ccc(-c2cccc(C(=O)NCCC#N)c2)c2cc(Cc3cccc(C(F)(F)F)c3)oc12`, the melting point was 126 to 127 °C. Compound `Cc1c(Cl)ccc(N(C)C(=O)CN2C(=O)c3ccccc3C2=O)c1Cl` has a melting point of 193 to 194 °C. With `CCc1cc(=O)c2c([nH]1)CCCN2` the melting point was 206 to 209 °C. `NC(=O)Cc1ccc2[nH]cc(CCNC(=O)OCc3ccccc3)c2c1` showed a melting point of 124 to 125 °C. Compound `ClCCN1c2ccc(Cl)cc2C(c2ccsc2)=NCC1CCl` (stereo not drawn) has a melting point of 115 to 116 °C. Compound `S=c1c2c(ncn2Cc2cccnc2)c2cccnc2n1-c1ccccc1` has a melting point of 222 to 224 °C. In the case of `COC(=O)CCc1cc2cc(Cl)ccc2n1S(=O)(=O)c1cc(OC)ccc1OC`, the melting point is reported as 120 to 124 °C. `Cc1ccc2c(c1)N(CC(=O)c1ccccc1C)C(=O)C(NC(=O)Nc1ccc(F)c(C(=O)O)c1)CN2C(=O)C(C)(C)C` (stereo not drawn) gave a melting point of 225 to 228 °C. With `O=c1[nH]c(NCCCn2ccnc2)nc2c1ncn2C1CC(O)C(CO)O1` (stereo not drawn) the melting point was 245 to 247 °C. `O=C(OCc1cc(OCCCO)c(OCCCO)c(OCCCO)c1)c1ccccc1` showed a melting point of 54 to 55 °C. For `CCCCc1ncc(/C=C2/C(=O)NC(=O)N2C)n1Cc1ccc(C(=O)O)cc1`, the melting point was 248 to 250 °C. Work on `CC(=NOCCOS(C)(=O)=O)c1ccc(-c2ccc(F)cc2)cc1` yielded a melting point of 103 to 106 °C. `CC(C)(C)OC(=O)NCCCCNOC(=O)c1ccccc1` showed a melting point of 113 to 114 °C. `CCc1nnc2c(N(C)C)nc3ccccc3n12` gave a melting point of 155 to 158 °C. `O=C(Cn1c(-c2cccnc2)ncc(NC(=O)OCc2ccccc2)c1=O)NC(Cc1ccccc1)C(=O)C(F)(F)F` (stereo not drawn) showed a melting point of 88 to 91 °C. With `O=C(c1ccccc1)C(O)O` the melting point was 85 to 85.5 °C. `C=CCOc1nc2c(c3ccccc13)c1cc(Cl)ccc1n2C` gave a melting point of 147 to 148 °C. `COc1cc(-c2ncnc(C(F)(F)F)c2C)c(F)cc1Cl` gave a melting point of 144 to 146 °C. With `Cc1ccc2c(c1)C(NC(=O)CCCN1CCN(c3ccc(F)cc3)CC1)c1ccccc1CS2(=O)=O` (stereo not drawn) the melting point was 163 to 165 °C. With `NS(=O)(=O)c1ccc(C(=O)NCCc2ccccc2)cc1` the melting point was 243 to 245 °C. Work on `COc1cccc(NC(=O)c2cc(C#N)cc(C)n2)c1` yielded a melting point of 189 °C. Compound `O=S(=O)(c1ccccc1)C(F)(F)C(O)c1ccc(Cl)cc1` (stereo not drawn) has a melting point of 100 to 102 °C. Compound `Cc1ccc(S(=O)(=O)c2ccccc2S(=O)(=O)N=CN(C)C)cc1` has a melting point of 178 °C. Work on `CCC1CCCCN1C(=O)C=Cc1c(-c2ccncc2)nn2ccccc12` (stereo not drawn) yielded a melting point of 150 to 153 °C. Compound `COC1C(OC(=O)c2ccc([N+](=O)[O-])cc2)C=C(C)C(=O)CC1(C)C` (stereo not drawn) has a melting point of 136 to 138 °C. For `O=C(Nc1nc(C(F)(F)F)c(I)s1)c1c(Cl)cccc1Cl`, the melting point was 157 to 159 °C. With `CCOC(=O)C1CCN(c2nc(-c3ccc(Cl)cc3)c(CCCOc3ccccc3OC)o2)CC1` the melting point was 80 to 81 °C. With `CCC1CC2(C)C(CCC3C2CCC2(C)C(OC)CCC32)CC1=O` (stereo not drawn) the melting point was 105 to 107 °C. Compound `CC(=O)Oc1c(C(C)(C)C)cc(C=[N+]([O-])CC(C)C)cc1C(C)(C)C` has a melting point of 177 to 180 °C. `NC(=O)c1nnn(Cc2cc(Cl)c(C(=O)c3ccc(Cl)cc3)c(Cl)c2)c1N` gave a melting point of 198 to 200 °C. `NC(=O)c1ccnc(-c2ccc(Oc3ccc(Cl)cc3F)cc2)n1` showed a melting point of 198 to 200 °C. `C=CCN(CC=C)c1nc(NC(=O)c2c(Cl)cccc2Cl)n2oc(=O)nc2n1` showed a melting point of 133 to 135 °C. In the case of `Cc1ccccc1-c1nc(-c2ccc(-c3ccccc3)cc2)n[nH]1`, the melting point is reported as 165 to 167 °C. `COC(=O)C(CCCBr)Oc1cc2c(cc1[N+](=O)[O-])CCC2` (stereo not drawn) gave a melting point of 154 to 155 °C. Compound `CC(C(=O)O)c1ccc2c(c1)Cc1cc([N+](=O)[O-])ccc1-2` (stereo not drawn) has a melting point of 206 to 209 °C. For `OCC1OC(n2cnc3cncnc32)CC1F` (stereo not drawn), the melting point was 89 °C. `CC(C)(C)OC(=O)N[C@H]1CC[C@H](CCN2CCN(c3nccc4c3OCC4)CC2)CC1` showed a melting point of 141 °C. `Nc1cc2c(Nc3ccc(F)c(Cl)c3)ncnc2cc1OCC1CCOCC1` gave a melting point of 221 °C. Compound `CC(C)C(C)CCC(C)C1CCC2C3CCC4CCCCC4(C)C3CCC12C` (stereo not drawn) has a melting point of 136 to 137 °C. In the case of `O=C(O)C1Cc2ccccc2C1`, the melting point is reported as 130 °C. With `CN(C)c1ccc2nc[nH]c(=O)c2c1` the melting point was 233 to 236 °C. Compound `CCOC(=O)c1sc(NC(=O)c2cc(C(F)(F)F)cc(C(F)(F)F)c2)nc1C(F)(F)C(F)(F)F` has a melting point of 154 to 155 °C. `CCOC(=O)C(=CNc1c(C#N)cnn1-c1ccc(Cl)c(Cl)c1Cl)C(=O)OCC` gave a melting point of 157 to 158 °C. Work on `CSc1c[nH]nc1C1CN2CCC1CC2` (stereo not drawn) yielded a melting point of 145 to 147 °C. Work on `O=C(O)CCCCCCCCNC(=O)C1Cc2ccccc2N1S(=O)(=O)c1ccc(-c2cccc(C(F)(F)F)c2)cc1` (stereo not drawn) yielded a melting point of 60 °C. With `Cc1cccc(Nc2ccccc2C=O)c1C` the melting point was 45 to 47 °C. Compound `COc1cccc(Cc2nnc(SC)[nH]c2=O)c1` has a melting point of 185 to 186 °C. Work on `c1cnc(-c2cccnc2)nc1` yielded a melting point of 51 to 52 °C. In the case of `CCCc1nn(C)c2c(OCCOc3ccc(CC(OCC)C(=O)O)cc3)nc(C)nc12` (stereo not drawn), the melting point is reported as 142 to 144 °C. `Oc1ncn(-c2ccccc2)n1` gave a melting point of 281 to 282 °C. Compound `CN1CN(C(=O)c2c(F)cccc2F)C(=O)N(c2ccc(S(=O)C(F)F)cc2F)C1` (stereo not drawn) has a melting point of 50 to 55 °C. With `CCOc1cccc2cc(S(=O)(=O)Nc3ccc(OC)cc3)c(=O)oc12` the melting point was 196 to 198 °C. Compound `CC1=CC2Cc3[nH]c(=O)ccc3C3(C1)NCCCC23` (stereo not drawn) has a melting point of 270 to 271 °C. `Cc1ccc2c(c1)c(-c1ccc(F)cc1)c(Cl)n2C1CCN(CCN2CCN(C(C)C)C2=O)CC1` showed a melting point of 127 to 130 °C. `NC(=S)c1ccc2c(c1)Nc1ccccc1S2` gave a melting point of 208 to 209 °C. Compound `CC(C)c1c(C(=O)N[C@H](C)[C@](O)(Cn2cncn2)c2ccc(F)cc2F)cnn1-c1ccc(Cl)cc1` has a melting point of 85 to 92 °C. `Nc1c(F)c(Cc2ccc(F)cc2)nc(C=O)c1Cl` showed a melting point of 109 to 111 °C. `CNc1nc(N2CCN(C)CC2)nc2ccc(Cl)cc12` showed a melting point of 173 to 176 °C. `O=C(O)c1sc2ccc3c(c2c1Cl)O[C@@H](CO)CO3` gave a melting point of 236 to 237 °C. In the case of `CCOC(=O)c1cc2c(OC)cc3c(c2[nH]1)CCCC3`, the melting point is reported as 202 to 203 °C. With `COC(=O)c1cc(OC)c(Br)cc1Cl` the melting point was 78 to 79 °C. With `O=C1Nc2ccc(Cl)cc2C2(c3ccccc3)OCCN12` (stereo not drawn) the melting point was 216 to 217 °C. With `FC(F)C(F)(F)Sc1nc2c3ccccc3c3ccccc3c2[nH]1` the melting point was 230 to 231 °C. Compound `COC(=O)Cn1c(C(=O)NC(N)=S)cc2cc(OC)ccc21` has a melting point of 202 to 206 °C. In the case of `CSc1ccc(C2=C(c3ccc(F)cc3)C(=O)OC2)c(F)c1`, the melting point is reported as 118 to 122 °C. `Cc1cccc(NC(=O)NCC(=O)N(CC(=O)OCc2ccccc2)c2ccccc2)c1` showed a melting point of 140 °C. With `COc1ccccc1NC1CN(C(c2ccccc2)c2ccccc2)C1` the melting point was 75 to 77 °C. In the case of `COc1ncc(CC2SC(N3CCOCC3)=NC2=O)cc1-c1ccc(O)c(C23CC4CC(CC(C4)C2)C3)c1` (stereo not drawn), the melting point is reported as 175 to 177 °C. Work on `CNc1cc(Oc2cccc(C(F)(F)F)c2)nc(C(=O)O)c1` yielded a melting point of 66 to 68 °C. Compound `CC1(C)O[C@@]23CC(=O)CC[C@@]2(C)CC[C@@H]1C3` has a melting point of 60 to 61 °C. With `Cn1c(C(F)(F)F)cc(=O)n(-c2cc(OCc3ccc(F)cc3)c(Cl)cc2F)c1=O` the melting point was 174 to 177 °C. For `CCOC(=O)c1nn(-c2ccc(Cl)cc2Cl)c(-c2ccc(Cl)cc2)c1C`, the melting point was 124 °C. For `CC(=O)Nc1ccc2c(c1)C(=O)N(CCO)CO2`, the melting point was 155 to 156 °C. In the case of `Cc1cccc(NC(=O)CCCCl)c1CNc1cccn2c(C)c(C)nc12`, the melting point is reported as 138 to 140 °C. Compound `N#Cc1c(N2CCCCC2)[nH]c2cccnc12` has a melting point of 241 to 242 °C. Compound `O=c1[nH]nc(-c2ccc(C(F)(F)F)cc2)o1` has a melting point of 214 to 216 °C. For `O=C(Nc1nccs1)C(CC1CCCC1)c1ccc(NS(=O)(=O)C(F)(F)F)cc1` (stereo not drawn), the melting point was 70 to 74 °C. For `CC(C)(C)OC(=O)N1CCN(C(=O)/C=C/c2ccc(Sc3ccc4c(c3)OCCO4)c([N+](=O)[O-])c2)CC1`, the melting point was 165 to 167 °C. Compound `O=c1c(-c2ccccc2F)c(CNc2ncnc3[nH]cnc23)oc2ccccc12` has a melting point of 143 to 147 °C. `O=C(O)CCCCCCCSc1ccc(O)cc1` showed a melting point of 94 to 95 °C. Work on `Cc1nc(Cn2cnc3c2c(=O)n(C)c(=O)n3C)no1` yielded a melting point of 135 °C. For `CC(=N)Nc1nc(-c2ccccn2)nc2ccccc12`, the melting point was 172 to 173 °C. Work on `CC1=C(C(=O)OCC2CCCO2)C(c2cccc(Br)c2)C(C(=O)OCC2CCCO2)=C(C)N1` (stereo not drawn) yielded a melting point of 138 to 140 °C. `COc1ccc([N+](=O)[O-])cc1NC(=O)CCCCC1CCSS1` (stereo not drawn) gave a melting point of 117 °C. Work on `CS(=O)(=O)c1cc(C(=O)O)c(N)cc1Cl` yielded a melting point of 284 to 286 °C. `COC(=O)c1c(CC#N)ncn1C1OC(COC(C)=O)C(OC(C)=O)C1OC(C)=O` (stereo not drawn) showed a melting point of 92 to 93 °C. Compound `Cc1nc2ccc3cnc(N(C)c4cccc([N+](=O)[O-])c4)nc3c2s1` has a melting point of 209 to 210 °C. `Cc1nc2ccccn2c1CN1CCC(Nc2nc3ccccc3n2Cc2ccc(F)cc2)CC1` showed a melting point of 198 °C. `Cc1nc(N2CCNCC2)nc(N2CCS(=O)(=O)CC2)c1[N+](=O)[O-]` gave a melting point of 208 to 211 °C. In the case of `OCc1ccc(-c2ccc(-c3cn([C@H]4CN5CCC4CC5)nn3)cc2)s1`, the melting point is reported as 234 °C. For `Cn1cnc(COc2nc3c(cc2C(C)(C)C)nnn3-c2ccccc2F)n1`, the melting point was 127 to 129 °C. With `CN(C)C(=O)Sc1ccc(C(=O)c2ccccc2C#N)cc1` the melting point was 112 °C. Work on `Cc1cn(-c2cc(Br)c3c(c2)CCC(=O)N3)c(C)n1` yielded a melting point of 242 °C. `Cc1nc2c(n1Cc1ccccc1)CCCC2=O` showed a melting point of 115 °C. Work on `C[C@H](CO)Nc1nc(SCc2cccc(F)c2F)nc2[nH]c(=O)c(NCCO)nc12` yielded a melting point of 197 to 199 °C. `COCC(=O)c1cnc2c(OC)cccc2c1Cl` showed a melting point of 96 to 98 °C. `CCCCNC(=N)c1ccc2[nH]c(=O)[nH]c2c1` gave a melting point of 168 °C. `CCCCCCCCCCCCCCCCCC(=O)c1ccc(C2=NC(C)(C)CO2)c(Cl)c1` showed a melting point of 57 to 60 °C. `Cc1cc2c(s1)Oc1cccc(C)c1N=C2N1CCN(C)CC1` showed a melting point of 114 to 117 °C. `COC1=C(Cl)C(=O)NC1=Nc1ccccc1` gave a melting point of 179 to 180 °C.
